{"source": "paper PMC3214651", "about": "(Antiviral research, 2009)", "key": {"[1]": {"system": "WNV", "conditions": "ref Zou et al., 2008; cited from earlier work"}, "[2]": {"target": "WNV NTPase (NS3) (West Nile virus, UniProt Q9Q6P4)", "assay": "NTPase assay", "type": "biochemical", "conditions": "1 µM, control compound"}, "[3]": {"target": "WNV protease (NS2b-NS3) (West Nile virus, UniProt Q9Q6P4)", "assay": "Protease assay", "conditions": "25 µM, control compound"}}}
{"molecule": "O[C@H]1[C@H]2c3cc4c(cc3CN3CCC(=C[C@@H]1O)[C@H]23)OCO4", "note": "[lycorine]", "values": [{"measurement": "EC50", "setting": "[1]", "value": 230, "unit": "nM"}, {"measurement": "TI", "setting": "[1]", "value": 104}]}
{"molecule": "Nc1nc2c(ncn2[C@@H]2O[C@H](COP(=O)(O)OP(=O)(O)OP(=O)(O)O)[C@@H](O)[C@H]2O)c(=O)[nH]1", "note": "[nonradioactive GTP, GTP]", "values": [{"measurement": "suppression of NTPase activity", "setting": "[2]", "value": "> 85", "unit": "%"}]}
{"molecule": "aprotinin", "values": [{"measurement": "suppression of protease activity", "setting": "[3]", "value": "> 85", "unit": "%"}]}
